The values that follow come from patent US9670217B2, “Process for preparing chlorins and their pharmaceutical uses” (UNIVERSIDADE DE COIMBRA, priority 2008, dated 2017).

The subject of data set [1] is CT26 (mouse colon carcinoma). Briefly: Cytotoxicity in the dark, resazurin assay. Format: cell-based. On the procedure: The cell lines employed in laser irradiation were the HT-29 (human colon carcinoma), PC-3 (human prostate carcinoma), SW2 (human small cell lung cancer), A-549 (human non-small cell lung cancer). S91/I3 (mouse melanoma) and CT26 (mouse colon carcinoma). They were used both for cytotoxicity and photocytotoxicity experiments. PC-3. SW2 and S91113 cells were cultured in RPMI-1640 medium (Sigma-Aldrich, Steinheim, Germany) and HT-29, A-549 and CT26 cells were cultured in Dulbecco's Modified Eagle Medium (DMEM) (Cambrex Bioscience, Verviers, Belgium). […] For the in vitro studies, cells at 85-90% confluence, were detached with Trypsin-Versene-EDTA solution (Cambrex Bioscience, Verviers, Belgium), counted and seeded in flat-bottom 96-well plates at the desired densities.
Cell viability assay. In the end of the experiences cell viability was evaluated by the resazurin reduction assay. […] The absorbance values of each well were measured at 540 nm and 630 nm using a microplate reader Multiskan Ex (Thermo-Electron Corporation, Vartaa, Finland).
Cytotoxicity. […] After the incubation the cell viability was evaluated. […] Cytotoxicity was quantified by expressing cell death relatively to untreated cells (% of control cells). […]

Data set [2] is described as follows: Bacteriochlorin pharmacokinetics and biodistribution following ip administration, S91 tumor-bearing mice. Particulars: 10 mg/kg ip.

Consider `CCNS(=O)(=O)c1ccc(Cl)c(-c2c3nc(c(-c4c(Cl)ccc(S(=O)(=O)NCC)c4Cl)c4ccc([nH]4)c(-c4c(Cl)ccc(S(=O)(=O)NCC)c4Cl)c4nc(c(-c5c(Cl)ccc(S(=O)(=O)NCC)c5Cl)c5ccc2[nH]5)CC4)CC3)c1Cl` [Luzitin-Cl2Et, 5,10,15,20-tetrakis(2,6-dichloro-3-N-ethylsulfamoylphenyl)bacteriochlorin], for which the “highest concentration that causes relatively no effect in viability in the dark” value in data set [1] was determined as 50 µM.

Consider `O=S(=O)(O)c1ccc(Cl)c(-c2c3nc(c(-c4cc(S(=O)(=O)O)ccc4Cl)c4ccc([nH]4)c(-c4cc(S(=O)(=O)O)ccc4Cl)c4nc(c(-c5cc(S(=O)(=O)O)ccc5Cl)c5ccc2[nH]5)CC4)CC3)c1` [Luzitin-Cl, 5,10,15,20-tetrakis(2-chloro-5-sulfonylphenyl)bacteriochlorin], for which, in data set [2], the “accumulation in the skin” value was “negligible” and the “time to clearance from most of the organs” value is listed as 24 h. In addition, in data set [2] (one day after administration), the “concentration in tumor relative to muscle” value stood at 3 times.
